Consider five compounds from PMC6315490, “Angucycline Glycosides from an Intertidal Sediments Strain Streptomyces sp. and Their Cytotoxic Activity against Hepatoma Carcinoma Cells” (Marine Drugs, 2018).

“Also recorded” adds a separate entry of the source.

What all share (assay type): cell-based
The subject of data set [1] is hepatoma carcinoma SMMC-7721 cells. The data set is described as follows: MTT cytotoxicity assay, SMMC-7721. The note with it: Homo sapiens, MTT method. The procedure: (§1) Though, the distinct in vivo toxicity restricted the further development of these compounds to be clinical drugs. Recently, an atypical angucycline, lomaiviticin A, was reported to be under preclinical evaluation for antitumor treatment due to its prominent cytotoxicity and effects of inducing double-strand breaks in DNA [14, 23]. In present work, 1–4 were assayed for their cytotoxic activity against normal liver cell LO2, hepatoma carcinoma HepG-2, SMMC-7721 and plc-prf-5 cell lines by 3-(4,5-dimethylthiazol-2-yl)-2,5-diphenyltetrazolium bromide (MTT) method (Table 2).
(§2) The cytotoxicity evaluations of 1–4 against normal liver cell and hepatoma carcinoma cells were carried out using the 3-(4,5-dimethylthiazole-2-yl)-2,5-diphenyltetrazolium bromide (MTT) assay. Doxorubicin was used as positive control drug and deionized H2O with the same DMSO concentration was used as parallel control. DAPI staining test was employed to qualitatively observe apoptosis, and the apoptotic ratio was measured by flow cytometric analysis (Becton Dickinson FACScan, San Jose, CA, USA). These tests were conducted using the methods as previously described.

Data set [2] concerns hepatoma carcinoma HepG-2 cells. As to the kind of experiment: MTT cytotoxicity assay, HepG-2. The note with it: Homo sapiens, HepG2, MTT method. The procedure:
as §1, §2

The nature of data set [3]: MTT cytotoxicity assay, normal liver cell LO2. Conditions: human; MTT method; LO2 normal liver cells. The procedure: as §1, §2
Data set [4] deals with hepatoma carcinoma plc-prf-5 cells. The data set is described as follows: MTT cytotoxicity assay, plc-prf-5. The note with it: Homo sapiens, MTT method. As to the method:
as §1, §2

The test system of data set [5] is SMMC-7721 cells. As to the kind of experiment: Flow cytometric analysis of apoptosis. Conditions: Figure 5b. As to the method: as §1
(§3) Figure 5 (a) Fluorescence micrographs of untreated and saquayamycin B-treated SMMC-7721 cells (24 h) stained with DAPI, Magnification: 100×; (b) Quantification of saquayamycin B-induced apoptosis in SMMC-7721 cell using flow cytometric analysis. ** p < 0.01 versus saquayamycin B 0 μM group. […]
(§4) The cytotoxicity evaluations of 1–4 against normal liver cell and hepatoma carcinoma cells were carried out using the 3-(4,5-dimethylthiazole-2-yl)-2,5-diphenyltetrazolium bromide (MTT) assay. […] DAPI staining test was employed to qualitatively observe apoptosis, and the apoptotic ratio was measured by flow cytometric analysis (Becton Dickinson FACScan, San Jose, CA, USA). […]

Data set [6] relates to SMMC-7721 cells. The data set is described as follows: DAPI staining test for apoptosis. Conditions: 0.025 to 0.100 μM for 24 h. As to the method:
as §1, §3, §4

As for `CC1OC(OC2CCC(OC(C)(CC(=O)O)Cc3ccc4c(c3O)C(=O)c3ccc(C5CC6OC7CC(=O)C(C)OC7OC6C(C)O5)c(O)c3C4=O)OC2C)C=CC1=O` (stereo not shown) [Compound 3, vineomycin D], the IC50 in data set [1], in data set [2], in data set [3] and in data set [4] was over 40000 nM in each case.

As for `CC1OC(OC2CCC(OC3(C)CC(=O)C4(O)C5=C(C=CC4(O)C3)C(=O)c3c(ccc(C4CC6OC7CC(=O)C(C)OC7OC6C(C)O4)c3O)C5=O)OC2C)C=CC1=O` (stereo not shown) [Compound 4, saquayamycin B], the IC50 in data set [1] came to 33 ± 5 nM; in data set [2], 135 ± 56 nM; in data set [3], 343 ± 81 nM; in data set [4], 244 ± 1 nM. For the same compound, the “Apoptotic ratio of SMMC-7721 cells (flow cytometry), concentration dependence” value in the data set on SMMC-7721 cells [5] was “dependent on the concentrations of saquayamycin B”. Also, the “Apoptosis by morphological characteristics in DAPI staining” value with SMMC-7721 cells [6] was “chromatin dispersion and formation of apoptotic body; also recorded: induced apoptosis in SMMC-7721 cells”.

On to `Cc1cc(O)c2cc3c(c(O)c2c1)C(=O)c1ccc(C2CC4OC5CC(=O)C(C)OC5OC4C(C)O2)c(O)c1C3=O` (stereo not shown) [Compound 2, galtamycin C], for which the IC50 in data set [1], in data set [2], in data set [3] and in data set [4] was over 40000 nM each time.

Turning to `COc1cccc2c1C(=O)c1c(O)c3c(c(O)c1C2=O)C[C@@](O)(C(=O)CO)C[C@@H]3O[C@H]1C[C@H](N)[C@H](O)[C@H](C)O1` [Doxorubicin, reference compound], the IC50 in data set [1] is 706 ± 4 nM; in data set [2], 919 ± 599 nM; in data set [3], 2260 ± 160 nM; in data set [4] it was 1030 ± 990 nM.

`Cc1cc(O)c2c3c(cc(O)c2c1)C(=O)c1c(ccc(C2CC4OC5CC(=O)C(C)OC5OC4C(C)O2)c1O)C3=O` (stereo not shown) [Compound 1, landomycin N]: the IC50 in data set [1], in data set [2], in data set [3] and in data set [4] was over 40000 nM each time.
